Measurements reported in the CheMixHub ionic liquid set.

Test: xn = mol fraction of the nth substance listed

CCCC[n+]1ccn(C)c1.[Br-] + O=C1O[C@H]([C@@H](O)CO)C(O)=C1O + O
viscosity [mPa·s], 100 kPa
Conditions	293.15 K	298.15 K	303.15 K	308.15 K	313.15 K	318.15 K
x2 = 0, x1 = 0.0009002	1.033	0.918	0.823	0.753	0.676	0.618
x2 = 0, x1 = 0.001799	1.057	0.938	0.84	0.758	0.689	0.631
x2 = 0, x1 = 0.002696	1.069	1	0.905	0.795	0.749	0.68
x2 = 0.0003657, x1 = 0.0008999	1.04	0.925	0.831	0.761	0.684	0.626
x2 = 0.0003693, x1 = 0.001798	1.064	0.945	0.847	0.765	0.696	0.638
x2 = 0.000373, x1 = 0.002695	1.073	1.005	0.912	0.802	0.756	0.687
x2 = 0.0007293, x1 = 0.0008995	1.048	0.933	0.839	0.769	0.691	0.633
x2 = 0.0007366, x1 = 0.001797	1.071	0.952	0.854	0.772	0.703	0.645
x2 = 0.0007401, x1 = 0.002694	1.08	1.013	0.919	0.808	0.763	0.695
x2 = 0.001093, x1 = 0.0008992	1.055	0.94	0.845	0.775	0.697	0.639
x2 = 0.0011, x1 = 0.001797	1.081	0.961	0.862	0.78	0.71	0.651
x2 = 0.001111, x1 = 0.002693	1.088	1.02	0.927	0.816	0.77	0.701
x2 = 0.001456, x1 = 0.0008989	1.063	0.947	0.851	0.781	0.703	0.644
x2 = 0.001467, x1 = 0.001796	1.09	0.969	0.869	0.786	0.716	0.657
x2 = 0.001485, x1 = 0.002692	1.097	1.029	0.935	0.823	0.777	0.708
x2 = 0.001819, x1 = 0.0008986	1.071	0.954	0.859	0.788	0.71	0.65
x2 = 0.001833, x1 = 0.001795	1.097	0.976	0.876	0.793	0.723	0.664
x2 = 0.001851, x1 = 0.002691	1.106	1.038	0.941	0.83	0.785	0.715
x2 = 0.002183, x1 = 0.0008982	1.079	0.961	0.865	0.795	0.717	0.657
x2 = 0.002201, x1 = 0.001795	1.104	0.982	0.882	0.798	0.728	0.669
x2 = 0.002221, x1 = 0.00269	1.114	1.045	0.948	0.837	0.792	0.722

CCCCCCCCCCCC[N+](C)(C)Cc1ccccc1.[Cl-] + CC(C)C[C@H](NC(=O)CN)C(=O)O + O
electrical conductivity [S/m], 101 kPa
Conditions	293.15 K	298.15 K	303.15 K	308.15 K	313.15 K
x2 = 0.0008999, x1 = 0.0002654	0.0792	0.0889	0.0993	0.11	0.123
x2 = 0.0008999, x1 = 0.0002843	0.0824	0.0926	0.104	0.116	0.129
x2 = 0.0008999, x1 = 0.0003023	0.0854	0.096	0.107	0.12	0.134
x2 = 0.0008999, x1 = 0.0003252	0.0892	0.101	0.113	0.126	0.14
x2 = 0.0009, x1 = 0.0001699	0.0609	0.068	0.0754	0.0833	0.0918
x2 = 0.0009, x1 = 0.000197	0.0669	0.0747	0.083	0.0919	0.102
x2 = 0.0009, x1 = 0.000222	0.0716	0.0801	0.0893	0.0991	0.11
x2 = 0.0009, x1 = 0.0002447	0.0757	0.0848	0.0946	0.105	0.117
x2 = 0.0009001, x1 = 5.034e-05	0.0218	0.0243	0.0272	0.0302	0.0333
x2 = 0.0009001, x1 = 7.251e-05	0.03	0.0335	0.0373	0.0412	0.0454
x2 = 0.0009001, x1 = 9.522e-05	0.038	0.0425	0.0473	0.0521	0.0573
x2 = 0.0009001, x1 = 0.0001178	0.0458	0.0511	0.0567	0.0625	0.0687
x2 = 0.0009001, x1 = 0.0001434	0.0539	0.0601	0.0666	0.0734	0.0808
x2 = 0.001793, x1 = 4.141e-05	0.0191	0.0215	0.0243	0.0271	0.0301
x2 = 0.001793, x1 = 6.45e-05	0.0271	0.0306	0.0342	0.038	0.0421
x2 = 0.001793, x1 = 8.905e-05	0.0354	0.0397	0.0444	0.0491	0.0542
x2 = 0.001793, x1 = 0.0001112	0.0424	0.0477	0.0531	0.0587	0.0648
x2 = 0.001793, x1 = 0.0001367	0.05	0.056	0.0624	0.069	0.0761
x2 = 0.001793, x1 = 0.0001631	0.0569	0.0637	0.0707	0.0787	0.0879
x2 = 0.001793, x1 = 0.0001904	0.0632	0.0708	0.0791	0.0877	0.0969
x2 = 0.001793, x1 = 0.0002156	0.0683	0.0767	0.0859	0.0955	0.106
x2 = 0.001793, x1 = 0.0002389	0.0727	0.0819	0.0918	0.102	0.114
x2 = 0.001793, x1 = 0.00026	0.0766	0.0863	0.0969	0.108	0.121
x2 = 0.001793, x1 = 0.0002803	0.0802	0.0905	0.102	0.114	0.127
x2 = 0.001793, x1 = 0.0003015	0.0838	0.0947	0.107	0.12	0.133
x2 = 0.001793, x1 = 0.0003211	0.0872	0.0986	0.112	0.125	0.139

CS(C)=O + CCCC[n+]1ccn(C)c1.O=S(=O)([N-]S(=O)(=O)C(F)(F)F)C(F)(F)F
100 kPa
Conditions	electrical conductivity [S/m]	viscosity [mPa·s]
294.5 K, x2 = 0.02028	0.45	–
298.15 K, x1 = 0.5903	–	13.22
303.15 K, x1 = 0.2885	–	23.78
303.15 K, x1 = 0.5026	–	13.9
308.15 K, x1 = 0.5903	–	9.52
308.15 K, x1 = 1	–	1.67
313.15 K, x1 = 0.0951	–	23.09
313.15 K, x1 = 0.2074	–	19.57
313.15 K, x1 = 0.5903	–	8.39
313.15 K, x1 = 1	–	1.53
323.15 K, x1 = 0.9012	–	2.15

CCCC[n+]1ccn(C)c1.[Br-] + CCCCOCCO
viscosity [mPa·s], 100 kPa
Conditions	x1 = 0.1007	x1 = 0.2003	x1 = 0.3007	x1 = 0.4003	x1 = 0.5	x1 = 0.5992	x1 = 0.7002	x1 = 0.8003	x1 = 0.8978	x1 = 1
298.15 K	18.4	56.8	108	155	201	263	374	577	920	1451
303.15 K	12.2	32.5	59.6	86.7	115	152	212	320	511	837
308.15 K	9.08	22.8	40.7	59.4	77	98	132	187	297	506
313.15 K	6.85	16.2	29.1	41.7	54.2	67.6	87.9	122	188	330

CC[n+]1ccn(C)c1.[Cl-] + OCC(O)CO
Conditions	viscosity [mPa·s]
303.15 K, 100 kPa, x1 = 0.333	126.9
313.15 K, 101 kPa, x1 = 0.667	135.5

CCCC[N+](CCCC)(CCCC)CCCC.[Cl-] + N[C@@H](CO)C(=O)O
101 kPa
Conditions	electrical conductivity, 313.15 K [S/m]	electrical conductivity, 323.15 K [S/m]	electrical conductivity, 333.15 K [S/m]	electrical conductivity, 343.15 K [S/m]	electrical conductivity, 353.15 K [S/m]	viscosity, 313.15 K [mPa·s]	viscosity, 323.15 K [mPa·s]	viscosity, 333.15 K [mPa·s]	viscosity, 343.15 K [mPa·s]	viscosity, 353.15 K [mPa·s]
x2 = 0.09091	0.024	0.035	0.06	0.09	0.13	1110	490	260	141	86
x2 = 0.1	0.0298	0.0451	0.0631	0.093	0.136	1220	600	297	158	97
x2 = 0.1111	0.0102	0.0181	0.0425	0.0933	0.136	1000	480	237	135	83

CCCn1cc[n+](C)c1.N[C@@H](CO)C(=O)[O-] + O
100 kPa
Conditions	electrical conductivity [S/m]	viscosity [mPa·s]
298.15 K, x1 = 0.8782	–	2215
298.15 K, x1 = 0.9094	–	2314
298.15 K, x1 = 0.9257	–	2391
303.15 K, x1 = 0.9426	–	1547
308.15 K, x1 = 0.8782	–	912
313.15 K, x1 = 0.8656	0.0804	–
313.15 K, x1 = 0.8956	0.0751	–
313.15 K, x1 = 0.9115	0.0721	–
318.15 K, x1 = 0.8936	–	432
318.15 K, x1 = 0.9094	–	438
318.15 K, x1 = 0.9115	0.102	–
318.15 K, x1 = 0.928	0.0979	–
323.15 K, x1 = 0.8809	0.15	–
323.15 K, x1 = 0.8956	0.145	–
323.15 K, x1 = 0.9426	–	337
328.15 K, x1 = 0.8809	0.199	–
328.15 K, x1 = 0.9257	–	238
333.15 K, x1 = 0.8782	–	171
333.15 K, x1 = 0.9115	0.248	–
338.15 K, x1 = 0.9115	0.319	–
338.15 K, x1 = 0.9257	–	134.8
338.15 K, x1 = 0.928	0.312	–
